From patent US10851073B2, “Protein tyrosine phosphatase inhibitors and methods of use thereof” (Calico Life Sciences LLC, priority 2019, dated 2020)

How the values were obtained:
[1] = target: T1, His tagged PTPN2 (TC45) protein (Homo sapiens, UniProt P17706); assay: Mobility shift assay used to determine potency of PTPN2 inhibitors; type: biochemical; settings: enzyme 0.5 nM, substrate 2 μM; read-out: PTPN2 MSA IC50
T1 construct: made in house
T1 sequence (P17706 with tags, fused parts or gaps isoform P17706-2): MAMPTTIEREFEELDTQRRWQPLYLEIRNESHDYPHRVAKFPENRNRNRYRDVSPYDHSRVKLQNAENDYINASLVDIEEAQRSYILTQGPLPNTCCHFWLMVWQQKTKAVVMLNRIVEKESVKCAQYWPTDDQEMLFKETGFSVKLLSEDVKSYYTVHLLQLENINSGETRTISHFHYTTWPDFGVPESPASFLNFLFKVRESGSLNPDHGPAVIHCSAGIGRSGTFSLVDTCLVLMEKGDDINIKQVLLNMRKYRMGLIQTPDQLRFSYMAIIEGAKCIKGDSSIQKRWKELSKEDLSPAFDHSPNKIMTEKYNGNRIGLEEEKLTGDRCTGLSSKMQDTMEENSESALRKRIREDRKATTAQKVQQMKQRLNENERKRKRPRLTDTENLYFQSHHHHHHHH
In short: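 Enzyme (0.5 nM) preincubated with compound (12-point, 1:3 dilution) 10 min at room temperature in 50 mM HEPES pH 7.5, 1 mM EGTA, 10 mM EDTA, 0.01% Tween 20, 2 mM DTT; OG488-labelled phospho-insulin-receptor peptide substrate (2 μM) added for 10 min, then quenched. Microfluidic mobility shift (ex 488/em 530 nm) gave % conversion; IC50 from % inhibition.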

[2] = target: T2, His tagged full-length PTPN1 protein (Homo sapiens, UniProt P18031); assay: Mobility shift assay (MSA) used to determine potency of PTPN1 inhibitors; type: biochemical; settings: enzyme 0.5 nM, substrate 2 μM
T2 construct: made in house
T2 sequence (P18031 with tags, fused parts or gaps): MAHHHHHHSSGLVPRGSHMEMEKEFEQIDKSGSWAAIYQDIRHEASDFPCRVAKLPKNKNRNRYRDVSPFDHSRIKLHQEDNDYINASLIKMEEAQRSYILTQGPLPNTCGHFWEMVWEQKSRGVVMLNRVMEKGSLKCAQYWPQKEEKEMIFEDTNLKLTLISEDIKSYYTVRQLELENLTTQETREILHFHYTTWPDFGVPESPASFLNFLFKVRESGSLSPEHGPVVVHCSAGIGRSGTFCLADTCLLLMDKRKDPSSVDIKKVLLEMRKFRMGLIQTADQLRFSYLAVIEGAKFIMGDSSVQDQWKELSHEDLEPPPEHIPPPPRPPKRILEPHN
Experimental: Example 228: Mobility Shift Assay (MSA) Used to Determine Potency of PTPN1 Inhibitors
Compound activity was determined using in house His tagged full-length PTPN1 protein (SEQ ID NO: 3) in an in vitro enzymatic reaction. The enzymatic assay used to determine activity is a mobility shift assay using a LabChip EZ Reader by Caliper Life Sciences. The enzymatic reaction was carried out in assay buffer (50 mM HEPES pH 7.5, 1 mM EGTA, 10 mM EDTA, 0.01% Tween® 20, and 2 mM DTT). The compounds were dispensed on a white 384 well ProxiPlate™ (PerkinElmer Cat^# 6008289) plate using a Labcyte Echo® liquid handler at varying concentrations (12 point, 1:3 dilution). The enzyme (at 0.5 nM) was incubated with compound for 10 minutes at room temperature. Then the substrate (phosphorylated insulin receptor probe sequence: ((OG488)-(NH—CH2—CH2—O—CH2—CH2—O—CH2—CO)-T-R-D-I-(PY)-E-T-D-Y-Y-R-K-K-NH2) (SEQ ID NO: 2) was added at 2 μM to the plates and incubated for another 10 minutes at room temperature. Finally, a quench solution (water and 4-bromo-3-(2-oxo-2-propoxyethoxy)-5-(3-{[1-(phenylmethanesulfonyl)piperidin-4-yl]amino}phenyl)thiophene-2-carboxylic acid) was added to the plates, which were then run on the EZ Reader (excitation 488 nm, emission 530 nm) to measure % conversion (the amount of phosphorylated substrate which was de-phosphorylated by PTPN1). […] The % inhibition was then used to calculate the IC50 values.

[3] = test system: B16F10 mouse melanoma cells; assay: B16F10 IFNγ-induced cellular growth inhibition assay; type: cell-based; settings: B16-F10, with 0.5 ng/mL IFNγ, read-out: B16F10 GI IC50
In short: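 B16F10 cells grown in DMEM+10% FBS, with or without 0.5 ng/mL final mouse IFNγ, and dosed in triplicate at 100 μM to 0.001 μM final (0.1% DMSO). Confluence imaged every 6 h for 5 days; percent growth inhibition versus DMSO/with-IFNγ control taken once DMSO/no-IFNγ wells exceeded 95% confluence, giving IC50.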

Row | SMILES | IC50 [1] [nM] | IC50 [2] [nM] | IC50 [3] [µM]
1 | O=C1CN(c2c(O)cc3c(c2F)CC(NCCCC(F)(F)F)CC3)S(=O)(=O)N1 (centres unmarked) [Compound 120, 5-{1-fluoro-3-hydroxy-7-[(4,4,4-trifluorobutyl)amino]-5,6,7,8-tetrahydronaphthalen-2-yl}-1λ^6,2,5-thiadiazolidine-1,1,3-trione] | 1 to 10 | 1 to 10 | < 1
2 | CCCCNC1CCc2cc(O)c(N3CC(=O)NS3(=O)=O)c(F)c2C1 (centres unmarked) [Compound 175, 5-[7-(butylamino)-1-fluoro-3-hydroxy-5,6,7,8-tetrahydronaphthalen-2-yl]-1λ^6,2,5-thiadiazolidine-1,1,3-trione] | 1 to 10 | 10 to 100 | < 1
3 | CC(C)(CCNC1CCc2cc(O)c(N3CC(=O)NS3(=O)=O)c(F)c2C1)C(F)(F)F (centres unmarked) [Compound 123, 5-{1-fluoro-3-hydroxy-7-[(4,4,4-trifluoro-3,3-dimethylbutyl)amino]-5,6,7,8-tetrahydronaphthalen-2-yl}-1λ^6,2,5-thiadiazolidine-1,1,3-trione] | 1 to 10 | 1 to 10 | 1 to 10
4 | O=C1CN(c2c(O)cc3c(c2F)C[C@@H]([C@@H]2CCN(S(=O)(=O)C4CC4)C2)CC3)S(=O)(=O)N1 (single isomer, unassigned) [Compound 137, 5-{(7RS)-7-[(3RS)-1-(cyclopropanesulfonyl)pyrrolidin-3-yl]-1-fluoro-3-hydroxy-5,6,7,8-tetrahydronaphthalen-2-yl}-1λ^6,2,5-thiadiazolidine-1,1,3-trione] | < 1 | 1 to 10 | 10 to 100
5 | CCCC1(NNC(=O)c2ccccc2)CCc2cc(O)c(N3CC(=O)NS3(=O)=O)c(F)c2C1 (centres unmarked) [Compound 241, N′-[8-fluoro-6-hydroxy-2-propyl-7-(1,1,4-trioxo-1λ^6,2,5-thiadiazolidin-2-yl)-1,2,3,4-tetrahydronaphthalen-2-yl]benzohydrazide] | 10 to 100 | 10 to 100 | 10 to 100
6 | CC(C)CCN[C@H]1CCc2cc(O)c(N3CC(=O)NS3(=O)=O)c(F)c2C1 (single isomer, unassigned) [Compound 117] | 10 to 100 | 10 to 100 | 1 to 10
7 | O=C1CN(c2c(O)cc3c(c2F)CC(NCC(O)CC(F)(F)F)CC3)S(=O)(=O)N1 (centres unmarked) [Compound 156, 5-{1-fluoro-3-hydroxy-7-[(4,4,4-trifluoro-2-hydroxybutyl)amino]-5,6,7,8-tetrahydronaphthalen-2-yl}-1λ^6,2,5-thiadiazolidine-1,1,3-trione] | 1 to 10 | 1 to 10 | < 1
8 | CC(C)(O)CCOC1CCc2cc(O)c(N3CC(=O)NS3(=O)=O)c(F)c2C1 (centres unmarked) [Compound 197, 5-[1-fluoro-3-hydroxy-7-(3-hydroxy-3-methylbutoxy)-5,6,7,8-tetrahydronaphthalen-2-yl]-1λ^6,2,5-thiadiazolidine-1,1,3-trione] | 10 to 100 | 10 to 100 | 1 to 10
9 | CC(C)CCN(CCc1ccccn1)C1CCc2cc(O)c(N3CC(=O)NS3(=O)=O)c(F)c2C1 (centres unmarked) [Compound 167, 5-(1-fluoro-3-hydroxy-7-{(3-methylbutyl)[2-(pyridin-2-yl)ethyl]amino}-5,6,7,8-tetrahydronaphthalen-2-yl)-1λ^6,2,5-thiadiazolidine-1,1,3-trione] | 1 to 10 | 10 to 100 | –
10 | O=C1CN(c2c(O)cc3c(c2F)CN(CC2CCCN2)CC3)S(=O)(=O)N1 (centres unmarked) [Compound 183, 5-{8-fluoro-6-hydroxy-2-[(pyrrolidin-2-yl)methyl]-1,2,3,4-tetrahydroisoquinolin-7-yl}-1λ^6,2,5-thiadiazolidine-1,1,3-trione] | > 100 | > 100 | –
11 | O=C1CN(c2c(O)cc3c(c2F)CC(NCCn2cccn2)CC3)S(=O)(=O)N1 (centres unmarked) [Compound 141, 5-(1-fluoro-3-hydroxy-7-{[2-(1H-pyrazol-1-yl)ethyl]amino}-5,6,7,8-tetrahydronaphthalen-2-yl)-1λ^6,2,5-thiadiazolidine-1,1,3-trione] | 1 to 10 | 10 to 100 | –
12 | CC(C)(CCN[C@H]1CCc2cc(O)c(N3CC(=O)NS3(=O)=O)c(F)c2C1)C(F)(F)F (single isomer, unassigned) [Compound 176] | 10 to 100 | 10 to 100 | –
13 | CC(C)CCN(Cc1ccccn1)C1CCc2cc(O)c(N3CC(=O)NS3(=O)=O)c(F)c2C1 (centres unmarked) [Compound 154, 5-(1-fluoro-3-hydroxy-7-{(3-methylbutyl)[(pyridin-2-yl)methyl]amino}-5,6,7,8-tetrahydronaphthalen-2-yl)-1λ^6,2,5-thiadiazolidine-1,1,3-trione] | 1 to 10 | 10 to 100 | –
14 | CC(O)CCOC(=O)N1CCc2cc(O)c(N3CC(=O)NS3(=O)=O)c(F)c2C1 (centres unmarked) [Compound 171, 3-hydroxybutyl 8-fluoro-6-hydroxy-7-(1,1,4-trioxo-1λ^6,2,5-thiadiazolidin-2-yl)-3,4-dihydroisoquinoline-2(1H)-carboxylate] | 1 to 10 | 1 to 10 | –
15 | O=C1CN(c2c(O)cc3c(c2F)CN(CC(O)C2CCCCC2)CC3)S(=O)(=O)N1 (centres unmarked) [Compound 215, 5-[2-(2-cyclohexyl-2-hydroxyethyl)-8-fluoro-6-hydroxy-1,2,3,4-tetrahydroisoquinolin-7-yl]-1λ^6,2,5-thiadiazolidine-1,1,3-trione] | > 100 | > 100 | –
16 | O=C1CN(c2c(O)cc3c(c2F)CCC(OCCCC(F)F)C3)S(=O)(=O)N1 (centres unmarked) [Compound 312, 5-[6-(4,4-difluorobutoxy)-1-fluoro-3-hydroxy-5,6,7,8-tetrahydronaphthalen-2-yl]-1λ^6,2,5-thiadiazolidine-1,1,3-trione] | 10 to 100 | 10 to 100 | –
17 | CC(F)(F)CNC1CCc2cc(O)c(N3CC(=O)NS3(=O)=O)c(F)c2C1 (centres unmarked) [Compound 132, 5-{7-[(2,2-difluoropropyl)amino]-1-fluoro-3-hydroxy-5,6,7,8-tetrahydronaphthalen-2-yl}-1λ^6,2,5-thiadiazolidine-1,1,3-trione] | 10 to 100 | 10 to 100 | –
18 | O=C1CN(c2c(O)cc3c(c2F)CC(CCC2CC2)CC3)S(=O)(=O)N1 (centres unmarked) [Compound 105, 5-[7-(2-cyclopropylethyl)-1-fluoro-3-hydroxy-5,6,7,8-tetrahydronaphthalen-2-yl]-1λ^6,2,5-thiadiazolidine-1,1,3-trione] | 1 to 10 | 1 to 10 | –
19 | COC1CCc2cc(O)c(N3CC(=O)NS3(=O)=O)c(F)c2C1 (centres unmarked) [Compound 110, 5-(1-fluoro-3-hydroxy-7-methoxy-5,6,7,8-tetrahydronaphthalen-2-yl)-1λ^6,2,5-thiadiazolidine-1,1,3-trione] | 10 to 100 | 10 to 100 | –
20 | CC(O)CCN1CCc2cc(O)c(N3CC(=O)NS3(=O)=O)c(F)c2C1 (centres unmarked) [Compound 242, 5-[8-fluoro-6-hydroxy-2-(3-hydroxybutyl)-1,2,3,4-tetrahydroisoquinolin-7-yl]-1λ^6,2,5-thiadiazolidine-1,1,3-trione] | 10 to 100 | 10 to 100 | –
21 | O=C1CN(c2c(O)cc3c(c2F)CC(NCCN2CCC2)CC3)S(=O)(=O)N1 (centres unmarked) [Compound 115, 5-(7-{[2-(azetidin-1-yl)ethyl]amino}-1-fluoro-3-hydroxy-5,6,7,8-tetrahydronaphthalen-2-yl)-1λ^6,2,5-thiadiazolidine-1,1,3-trione] | 10 to 100 | 10 to 100 | –
